Values after ≈ are worked out from the molar mass of the structure shown. “Also recorded” adds a separate entry of the source. Like-named read-outs stand apart in the source and are kept apart here. Blank lines part the entries; values can stand above or below the molecule they belong to.
Columns and labels:
[1] = target: Tte preQ1-Riboswitch aptamer domain; assay: MST off-target counter screen, preQ1-riboswitch aptamer domain; assay type: binding, Thermoanaerobacter tengcongensis
Experimental: (§1) Off-target counter screens by MST were performed as described previously.[31,84] Briefly, the 5′-Cy5-labelled Tte preQ1-Riboswitch aptamer domain (Biomers.net GmbH) was heated to 75 °C for 5 min, cooled down to room temperature for at least 20 min and then diluted to 20 nM in MST buffer (50 mM Tris-HCl pH 7.5, 100 mM KCl, 25 mM MgCl2) and supplemented with compounds 4, 5, 8–13, 18, 21, 22 and 26 to final concentrations of 1000, 100, 10 and 0.001 μM. PreQ1 was used as a positive control. The 5′-Cy5-labelled B. angulatum SAM VI-Riboswitch aptamer domain (Eurofins Genomics GmbH) was heated to 75 °C for 5 min, cooled down to room temperature for at least 20 min and then diluted to 20 nM in MST buffer (50 mM Tris-HCl pH 7.5, 100 mM KCl, 25 mM MgCl2) and supplemented with compounds 5, 9 and 28 to final concentrations of 1000, 100, 10 and 0.001 μM. SAM was used as a positive control. For each experiment, one DMSO negative control was carried out. The final DMSO concentration was 2%. All measurements were performed at least as duplicates for pre-screening and triplicates for KD-determination. MST measurements were analyzed from signals after 18 s laser on-time using the MO.Affinity Analysis software (version 2.3) and exported for statistical analysis and plotting in GraphPad Prism (version 8.0.1., GraphPad Software, Boston, Massachusetts USA, https://www.graphpad.com).

[2] = tested on: HCV IRES subdomain IIa; assay: FRET assay monitoring ligand-induced conformational change of Cy3/Cy5-labelled HCV IRES subdomain IIa; assay type: biochemical, hepatitis C virus; conditions: for EC50: 100 nM Cy3/Cy5-labelled RNA, 10 mM HEPES pH 7.0, 2 mM MgCl2, 2% DMSO, ≥ = lower limit; for FRET-signal change / conformational change of HCV IRES subdomain IIa, in words: pre-screening 1000, 100, 10 and 0.001 μM
Experimental: For the FRET assay, a two stranded HCV IRES subdomain IIa carrying a 5′-Cy3-label on one and 5′-Cy5-label on the other strand (Cy3-[…], Cy5-[…], Biomers.net GmbH) was used as described previously.[22,53] All samples containing labelled RNA were treated under light protection. FRET experiments were performed on a Tecan Spark 10 M plate reader (excitation/emission: 480/670 nm) using black half area 96 well microplates (Greiner Bio-One), based on a protocol by Zhou et al.[53] The 5′-Cy3- and 5′-Cy5-labelled single strands were annealed by heating to 75 °C in FRET buffer (10 mM HEPES pH 7.0, 2 mM MgCl2) and cooled down to room temperature for at least 20 min. The 5′-Cy3/Cy5-labelled RNA was diluted to 100 nM in FRET buffer and supplemented with compounds 8–28 in appropriate concentrations. Compounds 4 and 5 were used as positive controls. For the initial screening, compounds were added in final concentrations of 1000, 100, 10 and 0.001 μM (Fig. S4 ^†). If a concentration dependent reduction of the FRET signal (Cy5-emission) was observed, EC50-values were determined using ligand concentrations from 1 mM to 100 nM in 3.16-fold (semi-logarithmic) dilution series. For those compounds, the Cy3 emission was measured at 535 nm to confirm a conformational change dependent reduction in the Cy5 emission signal via Cy3 emission increase (Fig. S7 ^†). For each experiment, one DMSO negative control was carried out. The final DMSO concentration was always 2%. Excitation and emission spectra were recorded for the Cy3/Cy5-labelled RNA (100 nM) in FRET buffer to confirm excitation (Cy3) and emission (Cy5) wavelength as well as for each compound (1 μM) in FRET buffer to exclude any interference with the cyanine dyes. All measurements were performed at least as triplicates for screening and EC50-determination.
FRET experiments were analyzed using GraphPad Prism (version 8.0.1., GraphPad Software, Boston, Massachusetts USA, https://www.graphpad.com).

[3] = target: HCV IRES subdomain IIa; assay type: binding, hepatitis C virus; conditions: for Kd: 30 nM Cy5-labelled RNA, 10 mM HEPES pH 7.0, 2 mM MgCl2, 2% DMSO, ≥ = no saturation, n.b. no binding observed, read-out: MST KD
Experimental: For the MST assay, the same sequence of the two stranded HCV IRES subdomain IIa as for the FRET assay was used. One strand was 5′-Cy5-labelled and the other strand was unmodified ([…], Cy5-[…], Biomers.net GmbH). All samples containing labelled RNA were treated under light protection. MST experiments were performed on a Monolith NT.115 from NanoTemper Technologies using standard uncoated capillaries. The strands were annealed by heating to 75 °C in MST buffer (10 mM HEPES pH 7.0, 2 mM MgCl2) and cooled down to room temperature for at least 20 min. The 5′-Cy5-labelled HCV IRES domain IIa RNA was diluted to 30 nM in MST buffer and supplemented with compounds 8–25 in appropriate concentrations. Compounds 4 and 5 were used as positive controls. For the initial screening, compounds were added to final concentrations of 1000 (or 316 if limited by solubility), 100, 10 and 0.001 μM (Fig. S5 ^†). If a concentration-dependent shift of thermophoresis was observed, KD-values were determined using concentrations ranging from 1 mM (if permitted by solubility, otherwise starting from 316 or 100 μM) to 0.01 μM in a 3.16-fold (semi-logarithmic) dilution series. For each experiment, one DMSO negative control was carried out. Final DMSO concentration was always 2%.
as §1

[4] = tested on: HCV IRES subdomain IIa; set-up: method as in PMID 16279767, PMID 24930829, PMID 27775338; conditions: previously reported, Fig. 1; read-out: EC50 (FRET assay); cited from earlier work
[5] = tested on: HCV IRES; set-up: method as in PMID 15380215; conditions: previously reported, Fig. 1; read-out: IC50 (Luciferase reporter gene assay); cited from earlier work
[6] = tested on: HCV IRES; set-up: method as in PMID 10866369; conditions: previously reported, Fig. 1; cited from earlier work
[7] = target: SAM VI-Riboswitch aptamer domain; assay: MST off-target counter screen, SAM VI-riboswitch aptamer domain; assay type: binding, B. angulatum; conditions: positive control; read-out: KD of positive control binding to SAM-VI-riboswitch (MST)
Experimental: as §1

EC50 [2]: ≥ 300 µM | Kd [3]: ≥ 50 µM
Structure (SMILES): Nc1cc(-c2ccc3[nH]ncc3c2)c2cc[nH]c2n1 [Compound 12]

EC50 [2]: ≥ 500 µM | Kd [3]: ≥ 100 µM | binding to HCV IRES subdomain IIa (MST-shift), in words ([3]; pre-screening 1000 (or 316), 100, 10 and 0.001 μM): some weak binding | preQ1-riboswitch binding / selectivity (MST-shift), in words ([1]; 1000, 100, 10 and 0.001 μM): selectivity over the preQ1-riboswitch
Structure (SMILES): N=C(N)NC(=O)c1nc(Cl)c(N)nc1N [Compound 26, amiloride, reference compound]

Kd [7]: 772 nM
Structure (SMILES): C[S+](CC[C@H](N)C(=O)[O-])C[C@H]1O[C@@H](n2cnc3c(N)ncnc32)[C@H](O)[C@@H]1O (stereo partly shown) [SAM, reference compound]

EC50 [2]: 88 ± 12 µM | Kd [3]: 189 ± 20 µM
Structure (SMILES): CCOc1ccc2c(C)nc(NC(=N)N)nc2c1 [Compound 8a]

EC50 [2]: 61 ± 19 µM | lipophilic ligand efficiency LLE [3]: 2.9 | Kd [3]: 88 ± 2 µM
Structure (SMILES): CNC(=N)Nc1nc(C)c2ccc(OC)cc2n1 [Compound 8b]

Further lines, the molecule ahead of its results:

Structure (SMILES): NCc1c[nH]c2nc(N)[nH]c(=O)c12 [preQ1]
Kd ([1]; positive control, read-out: KD of positive control binding to preQ1-riboswitch (MST)): 12 nM

Structure (SMILES): CN(C)CCCNc1ccc2nc(N)oc2c1 [Compound 6]
EC50 [4]: 25 µM

Structure (SMILES): Cc1nc(/N=C(\N)NCCc2ccccc2)nc(C)c1OCCCN(C)C [Compound 2]
IC50 [5]: 2100 nM

Structure (SMILES): Cc1cc2nc3ccc(N(C)C)cc3nc2cc1N [Compound 1]
IC50 (Fluci reporter gene assay) [6]: 0.02 µg/mL (≈ 0.0793 µM)

Structure (SMILES): NC1=Nc2ccccc2C2(CC2)N1 [Compound 7]
EC50 [4]: 100 µM

Structure (SMILES): NC1=NC(c2ccccc2)n2c(nc3ccccc32)N1 (stereo not shown) [Compound 22]
FRET-signal change / conformational change of HCV IRES subdomain IIa, in words [2]: no large changes in FRET-signals; also recorded: no changes in the FRET-assay

Structure (SMILES): NC1=Nc2nc3ccccc3n2C(C2CC2)N1 (stereo not shown) [Compound 18]
FRET-signal change / conformational change of HCV IRES subdomain IIa, in words [2]: no large changes in FRET-signals; also recorded: no changes in the FRET-assay

Reference: paper PMC11110755, “Structure-based virtual screening of unbiased and RNA-focused libraries to identify new ligands for the HCV IRES model system” (RSC Medicinal Chemistry, 2024)
